Measured values from patent US12414958B2, “Medicament and use thereof for treating bacterial infections involving biofilm” (Debiopharm International S.A., priority 2019, dated 2025).
Several values for one entry are separate records, joined by “and”; a condition that tells them apart may be missing. Equal values may be shown once.

Key:
[1] = tested on: S. aureus ATCC 43300 (MRSA); assay: Mouse tissue cage model of MRSA infection, 5.5-day treatment (Example 2); assay type: in vivo, Staphylococcus aureus; details: for Cure rate (%) / adherent bacteria reduction from baseline (mean±SD): 24-h biofilm; for Cure rate (%) / Planktonic day 3 Δlog (individual animal) / adherent bacteria reduction from baseline (mean±SD): 5.5-day treatment; for Cure rate (%): cages without growth / total cages; for Adherent Mean / Adherent Δlog (individual animal): medium after sonication of explanted tissue cages, day 9 vs day 1; for Adherent Mean: group mean; for day on which bactericidal effect (mean reduction of bacterial load by ≥3 Log10) on planktonic bacteria was exerted: planktonic bacteria in tissue cage fluid, time points day 3, 6, 9; for Planktonic day 3 Mean / Planktonic day 6 Mean / Planktonic day 9 Mean / Planktonic day 3 Δlog (individual animal) / Planktonic day 9 Δlog (individual animal) / Planktonic day 6 Δlog (individual animal): tissue cage fluid; for Planktonic day 3 Mean / Planktonic day 6 Mean / Planktonic day 9 Mean: group mean Δlog from baseline (day 1); for Planktonic day 3 Δlog (individual animal) / Planktonic day 9 Δlog (individual animal) / Planktonic day 6 Δlog (individual animal): reduction from baseline (day 1); for Planktonic day 3 Δlog (individual animal): C57BL/6 mice; for Planktonic day 9 Δlog (individual animal): 3 days after end of treatment; for adherent bacteria reduction from baseline (mean±SD): n=3, given as positive reduction
Source text: The purpose of this study was to evaluate the efficacy of Debio 1450 BES alone and in combination with Daptomycin (DAP) in the mouse tissue cage model of implant-associated infections caused by methicillin resistant Staphylococcus (S.) aureus (MRSA). The efficacy against 24-h biofilm of S. aureus ATCC 43300 (MRSA) was investigated and compared to the standard of care combination of rifampicin (RIF) and DAP at the human equivalent doses. Employing a small initial inoculum (ca. 300 CFU/cage) together with a 24-h biofilm allowed to simulate clinical settings of an acute implant infection and/or surgical debridement.
The tissue cage model of prosthetic joint infections is very well-established and closely mimics the human prosthetic joint infections. This model is based on subcutaneous insertion of tissue cages followed by experimental infection of the foreign body by injection of bacterial inoculum into the cages.
In brief, one sterile polytetrafluorethylene (Teflon) cylinder (32×10 mm), perforated by 130 regularly spaced holes of 1 mm diameter (tissue cages; Angst-Pfister AG, Zürich) was aseptically implanted subcutaneously into the back of C57BL/6 mice (minimum weight 20 g). Experiments were started after complete wound healing (minimum 2 weeks after surgery). For the efficacy study presented here the cages in all animals were infected with around 300 colony-forming units (CFU) of the MRSA strain ATCC 43300 per cage and the biofilm were developed for 24 h before the beginning of the treatment.
The animals received antibiotic treatment i.p. (Debio 1450 BES and DAP) or sc (RIF) on day 1, 2, 3, 4, 5, and 6 (only the morning administration on day 6). One group received only 5% glucose and served as infected, untreated control group (vehicle). […] Debio 1450 and vehicle were administered bid, and qdam on day 6. DAP and RIF were administered qdam. The 50 mg/kg dose of Debio 1450 BES was selected as the HED. The DAP dose of […] was chosen as it closely correlates with the human clinical dosage of 10 mg/kg once daily. The RIF dose of 25 mg/kg is among the most commonly used in the treatment of experimental biofilm infections.
Five to 6 days before infection, TCF is aspirated to ascertain the sterility of implanted cages by TCF plating on blood agar plates. […] In addition, the number of bacteria in TCF was determined on day 3 (before the first injection that day), on day 6 (before last treatment), and on day 9 (before explantation of the cages) to evaluate the treatment efficacy against planktonic bacteria. The mouse number and bacterial count for the given cage were reported to analyse the time course of antibacterial activity of the tested drugs. The efficacy against biofilm-embedded bacteria was assessed qualitatively and quantitatively following aseptic explantation of the tissue cages 3 days after the completion of treatment. The 3 days of resting period will help to avoid the antibiotic carryover effect. Upon explantation, cages were washed twice with phosphate buffered saline (PBS) (Lot #5060914) and immediately transferred into 5 mL 0.9% NaCl (Lot #L161619 or L162658). Following 30 s vortexing, sonication (3 min at 130 W), and an additional 30 s vortexing step the numbers of bacteria dispersed from biofilm was determined by plating. The sonicated cages were washed once with PBS, transferred into 5 mL TSB (Lot #0286463), and incubated for 48 h at 37° C., with an additional vortexing step after 24 h of incubation. After the incubation, tubes were vortexed again and bacterial regrowth was assessed visually. In addition, 100 μL of each culture was plated on blood agar plates to ascertain the regrowth. A positive culture was defined as a treatment failure. The efficacy of treatment against adherent bacteria is expressed as the cure rate (in percent), defined as the number of cages without growth divided by the total number of cages in the individual treatment group.

MSSA ATCC 29213 = assay: Mouse tissue cage model of staphylococcal biofilm infection, MSSA (Example 4); assay type: in vivo, Staphylococcus aureus; details: 24-h biofilm MSSA ATCC 29213; 11-d treatment; cages explanted day 14
Protocol: After the incubation, tubes were vortexed again and bacterial regrowth was assessed visually. […] The efficacy of treatment against adherent bacteria is expressed as the cure rate (in percent), defined as the number of cages without growth divided by the total number of cages in the individual treatment group.

| Compound | Cure rate (%) [1] [%] | Adherent Mean [1] [log 10 CFU/mL] | Adherent Δlog (individual animal) ([1]; listed as DAP) | day on which bactericidal effect (mean reduction of bacterial load by ≥3 Log10) on planktonic bacteria was exerted [1] [day] | Planktonic day 3 Mean [1] [Log10] | Planktonic day 6 Mean [1] [Log10] | Planktonic day 9 Mean [1] [Log10] | Planktonic day 3 Δlog (individual animal) ([1]; listed as DAP) | Planktonic day 9 Δlog (individual animal) ([1]; listed as DAP) | Planktonic day 6 Δlog (individual animal) ([1]; listed as DAP) | adherent bacteria reduction from baseline (mean±SD) [1] [log 10 CFU/mL] | Adherent Δlog (individual animal) [1] | Planktonic day 6 Δlog (individual animal) [1] | Planktonic day 3 Δlog (individual animal) [1] | Planktonic day 9 Δlog (individual animal) [1] | Cure rate (%) (MSSA ATCC 29213) | Planktonic day 3 Δlog (individual animal) ([1]; listed as RIF) | Planktonic day 9 Δlog (individual animal) ([1]; listed as RIF) | Planktonic day 6 Δlog (individual animal) ([1]; listed as RIF) |
| --- | --- | --- | --- | --- | --- | --- | --- | --- | --- | --- | --- | --- | --- | --- | --- | --- | --- | --- | --- |
| CCCCCCCCCC(=O)N[C@@H](Cc1c[nH]c2ccccc12)C(=O)N[C@H](CC(N)=O)C(=O)N[C@@H](CC(=O)O)C(=O)N[C@@H]1C(=O)NCC(=O)N[C@@H](CCCN)C(=O)N[C@@H](CC(=O)O)C(=O)N[C@H](C)C(=O)N[C@@H](CC(=O)O)C(=O)NCC(=O)N[C@H](CO)C(=O)N[C@@H]([C@H](C)CC(=O)O)C(=O)N[C@@H](CC(=O)c2ccccc2N)C(=O)O[C@@H]1C [Daptomycin] | 33 | −3.91 | −4.48 log 10 CFU/mL (2×) and −2.78 log 10 CFU/mL | 3 | −3.10 | −4.91 | −3.60 | −2.41 Log10 and −4.79 Log10 and −0.67 Log10 and −5.15 Log10 and −2.91 Log10 and −2.70 Log10 | −1.07 Log10 and −4.79 Log10 and 0.73 Log10 and −5.15 Log10 and −5.95 Log10 and −5.38 Log10 | −5.72 Log10 and −4.79 Log10 and −2.46 Log10 and −5.15 Log10 and −5.95 Log10 and −5.38 Log10 | – | – | – | – | – | – | – | – | – |
| Cc1c(CN(C)C(=O)/C=C/c2cnc3c(c2)CCC(=O)N3COP(=O)(O)O)oc2ccccc12 [Debio 1450, {6-[(1E)-3-{methyl [(3-methyl-1-benzofuran-2-yl)methyl]amino}-3-oxoprop-1-en-1-yl]-2-oxo-3,4-dihydro-1,8-naphthyridin-1 (2H)-yl} methyl dihydrogen phosphate] | 50 | −3.81 | – | 6 | −2.62 | −4.45 | −3.90 | – | – | – | 3.81±1.15 | −4.48 log 10 CFU/mL (2×) and −2.48 log 10 CFU/mL | −3.24 Log10 and −2.69 Log10 and −5.64 Log10 and −5.10 Log10 and −4.91 Log10 and −5.09 Log10 | −1.42 Log10 and −1.40 Log10 and −2.10 Log10 and −5.10 Log10 and −1.93 Log10 and −3.79 Log10 | −5.85 Log10 and −3.41 Log10 and −1.32 Log10 and −5.10 Log10 and −4.91 Log10 and −2.79 Log10 | 14.3 | – | – | – |
| CO[C@H]1/C=C/O[C@@]2(C)Oc3c(C)c(O)c4c(O)c(c(/C=N/N5CCN(C)CC5)c(O)c4c3C2=O)NC(=O)/C(C)=C\C=C\[C@H](C)[C@H](O)[C@@H](C)[C@@H](O)[C@@H](C)[C@H](OC(C)=O)[C@@H]1C [Rifampicin] | 100 | −3.37 | – | 3 | −4.53 | −4.53 | −4.53 | – | – | – | 3.37±0 | −3.4 log 10 CFU/mL | – | – | – | 100 | −4.08 Log10 and −6.73 Log10 and −3.5 Log10 and −3.4 Log10 and −4.9 Log10 | −4.08 Log10 and −6.73 Log10 and −3.5 Log10 and −3.4 Log10 and −4.9 Log10 | −4.08 Log10 and −6.73 Log10 and −3.5 Log10 and −3.4 Log10 and −4.9 Log10 |
